# Laboratory results as given in US12539336B2, “Antibody, linkers, payload, conjugates and applications thereof” (GeneQuantum Healthcare (Suzhou) Co., Ltd., priority 2022, dated 2026).
# What was measured:
# [1] = test system: Trop2-positive cells BxPC-3 and Trop2-negative HepG2 cells; experiment: Bystander killing in BxPC-3/HepG2 co-culture assay (BxPC-3:HepG2=2:1); type: cell-based, human; settings: effect example 1.3, conclusion
# Protocol: (§1) A negative control group was set: 3 mL of 45% RPMI-1640+45% DMEM+10% FBS medium was added to each well. After the treatment, the cells were moved to the incubator and incubated for 96 h. After the incubation, cells were digested, and washed once with 1×PBS, then transferred to a flow tube, and centrifuged at 2000 rpm for 3 min. The supernatant was then discarded, and the cell amount and cell viability were detected. […] The cells were washed with 1×PBS, the supernatant was discarded after centrifugation, 200 μL of 5 μg/mL human IgG Fc antibody was added, and the resulting cells were continued to incubate at 4° C. for 30 min after mixing. Finally, the cells were washed with 1×PBS, the supernatant was discarded after centrifugation, and the cells were resuspended in PBS, detected by flow cytometry and analyzed by FlowJo software.
# [2] = test system: Trop2-positive cells BxPC-3 and Trop2-negative cells HepG2; experiment: Bystander killing in BxPC-3/HepG2 co-culture assay (BxPC-3:HepG2=4:1); type: cell-based, human; settings: effect example 1.1, conclusion
# Protocol: as §1
substance,measurement,setting,value
DS1062a,bystander killing effect,[1],had bystander killing effects
same,bystander killing effect,[2],had bystander killing effects
